Source: the NIST ThermoML archive (doi:10.1021/je900414p)
± gives the expanded uncertainty stated by the source.

Assay: xn = mol fraction of the nth substance listed
Conditions: Liquid

CCOS(=O)(=O)[O-].CCn1cc[n+](C)c1 [1-ethyl-3-methylimidazolium ethyl sulfate] + CCO
mass density [kg/m3]
Conditions	100 kPa	2500 kPa	5000 kPa	10000 kPa	15000 kPa	20000 kPa	25000 kPa	30000 kPa	35000 kPa
313.15 K, x1 = 0.05056	843.63 ± 0.68	845.7 ± 0.7	847.81 ± 0.8	851.86 ± 0.92	855.73 ± 1.1	859.44 ± 1.2	862.99 ± 1.3	866.42 ± 1.4	869.72 ± 1.6
313.15 K, x1 = 0.103	902 ± 1	903.78 ± 0.62	905.71 ± 0.66	909.43 ± 0.72	912.99 ± 0.78	916.4 ± 0.8	919.72 ± 0.89	922.91 ± 0.94	926.01 ± 0.99
313.15 K, x1 = 0.1247	923.22 ± 0.56	925.01 ± 0.58	926.88 ± 0.6	930.46 ± 0.65	933.91 ± 0.69	937.23 ± 0.72	940.45 ± 0.76	943.56 ± 0.79	946.56 ± 0.81
313.15 K, x1 = 0.2126	992.44 ± 0.47	994.08 ± 0.46	995.74 ± 0.46	998.97 ± 0.46	1002.07 ± 0.46	1005.09 ± 0.47	1008.03 ± 0.48	1010.88 ± 0.5	1013.65 ± 0.52
313.15 K, x1 = 0.2919	1041.3 ± 0.5	1042.32 ± 0.51	1043.83 ± 0.52	1046.78 ± 0.56	1049.64 ± 0.6	1052.42 ± 0.66	1055.15 ± 0.72	1057.79 ± 0.78	1060.38 ± 0.86
313.15 K, x1 = 0.3185	1054.58 ± 0.5	1055.91 ± 0.52	1057.39 ± 0.54	1060.28 ± 0.59	1063.09 ± 0.65	1065.82 ± 0.72	1068.49 ± 0.8	1071.08 ± 0.88	1073.63 ± 0.97
313.15 K, x1 = 0.4198	1098.28 ± 0.56	1099.64 ± 0.6	1101.01 ± 0.64	1103.69 ± 0.74	1106.3 ± 0.8	1108.84 ± 0.96	1111.34 ± 1.1	1113.78 ± 1.2	1116.18 ± 1.4
313.15 K, x1 = 0.4847	1120.82 ± 0.6	1122.08 ± 0.65	1123.39 ± 0.7	1125.96 ± 0.82	1128.48 ± 0.95	1130.94 ± 1.1	1133.35 ± 1.3	1135.7 ± 1.5	1138.01 ± 1.6
313.15 K, x1 = 0.5713	1146.49 ± 0.64	1147.66 ± 0.7	1148.92 ± 0.77	1151.37 ± 0.92	1153.79 ± 1.1	1156.13 ± 1.3	1158.44 ± 1.5	1160.72 ± 1.7	1162.93 ± 1.9
313.15 K, x1 = 0.6827	1173.47 ± 0.69	1174.61 ± 0.76	1175.83 ± 0.85	1178.16 ± 1	1180.44 ± 1.2	1182.7 ± 1.5	1184.92 ± 1.7	1187.08 ± 1.9	1189.22 ± 2.2
313.15 K, x1 = 0.7919	1195.34 ± 0.73	1196.17 ± 0.81	1197.31 ± 0.91	1199.56 ± 1.1	1201.76 ± 1.4	1203.92 ± 1.6	1206.06 ± 1.9	1208.15 ± 2.1	1210.22 ± 2.4
313.15 K, x1 = 0.9317	1217.11 ± 0.77	1218.16 ± 0.87	1219.26 ± 0.98	1221.43 ± 1.2	1223.56 ± 1.5	1225.65 ± 1.8	1227.71 ± 2.1	1229.75 ± 2.4	1231.75 ± 2.6
323.15 K, x1 = 0.05056	835.32 ± 0.7	837.47 ± 0.76	839.71 ± 0.82	843.97 ± 0.95	848.02 ± 1.1	851.88 ± 1.2	855.6 ± 1.4	859.16 ± 1.5	862.58 ± 1.6
323.15 K, x1 = 0.103	893.98 ± 0.61	895.85 ± 0.64	897.87 ± 0.67	901.75 ± 0.74	905.47 ± 0.81	909.03 ± 0.88	912.49 ± 0.94	915.79 ± 1	919.01 ± 1.1
323.15 K, x1 = 0.1247	915.32 ± 0.57	917.14 ± 0.59	919.07 ± 0.62	922.82 ± 0.67	926.4 ± 0.7	929.85 ± 0.76	933.19 ± 0.8	936.42 ± 0.84	939.53 ± 0.87
323.15 K, x1 = 0.2126	984.81 ± 0.47	986.48 ± 0.47	988.21 ± 0.47	991.57 ± 0.47	994.8 ± 0.5	997.91 ± 0.46	1000.95 ± 0.46	1003.91 ± 0.47	1006.77 ± 0.49
323.15 K, x1 = 0.2919	1034.05 ± 0.49	1035.04 ± 0.5	1036.64 ± 0.51	1039.7 ± 0.5	1042.66 ± 0.58	1045.53 ± 0.62	1048.35 ± 0.68	1051.07 ± 0.74	1053.73 ± 0.8
323.15 K, x1 = 0.3185	1047.28 ± 0.49	1048.63 ± 0.51	1050.16 ± 0.53	1053.16 ± 0.57	1056.05 ± 0.63	1058.87 ± 0.69	1061.63 ± 0.75	1064.29 ± 0.83	1066.91 ± 0.91
323.15 K, x1 = 0.4198	1091.13 ± 0.55	1092.5 ± 0.6	1093.93 ± 0.63	1096.7 ± 0.7	1099.39 ± 0.81	1102.02 ± 0.92	1104.58 ± 1.1	1107.1 ± 1.2	1109.55 ± 1.3
323.15 K, x1 = 0.4847	1113.75 ± 0.59	1115 ± 1	1116.36 ± 0.68	1119.02 ± 0.79	1121.59 ± 0.92	1124.12 ± 1.1	1126.59 ± 1.2	1129.01 ± 1.4	1131.39 ± 1.6
323.15 K, x1 = 0.5713	1139.53 ± 0.63	1140.71 ± 0.69	1142.02 ± 0.75	1144.55 ± 0.89	1147.01 ± 1.1	1149.42 ± 1.2	1151.81 ± 1.4	1154.14 ± 1.6	1156.41 ± 1.8
323.15 K, x1 = 0.6827	1166.57 ± 0.67	1167.74 ± 0.75	1168.97 ± 0.83	1171.37 ± 1	1173.72 ± 1.2	1176.03 ± 1.4	1178.31 ± 1.6	1180.52 ± 1.9	1182.71 ± 2.1
323.15 K, x1 = 0.7919	1188.51 ± 0.71	1189.35 ± 0.8	1190.5 ± 0.9	1192.81 ± 1.1	1195.06 ± 1.3	1197.29 ± 1.6	1199.48 ± 1.8	1201.62 ± 2.1	1203.73 ± 2.3
323.15 K, x1 = 0.9317	1210.34 ± 0.76	1211.42 ± 0.85	1212.55 ± 0.96	1214.78 ± 1.2	1216.96 ± 1.5	1219.11 ± 1.7	1221.21 ± 2	1223.29 ± 2.3	1225.34 ± 2.6
